These results are taken from ChEMBL document CHEMBL2163249, “Exploration of natural compounds as sources of new bifunctional scaffolds targeting cholinesterases and beta amyloid aggregation: the case of chelerythrine” (Bioorg Med Chem, 2012).

The target of experiment [1] is Acetylcholinesterase (Electrophorus electricus) (UniProt O42275). Conditions: at 2 mg/mL.
Description: Inhibition of electric eel AChE at 2 mg/ml by Ellman's method
Experiment [2] addresses Cholinesterase (Equus caballus) (UniProt P81908). Conditions: at 2 mg/mL.
Description: Inhibition of horse BChE at 2 mg/ml by Ellman's method

Cholinesterase (Equus caballus), sequence (P81908 whole entry): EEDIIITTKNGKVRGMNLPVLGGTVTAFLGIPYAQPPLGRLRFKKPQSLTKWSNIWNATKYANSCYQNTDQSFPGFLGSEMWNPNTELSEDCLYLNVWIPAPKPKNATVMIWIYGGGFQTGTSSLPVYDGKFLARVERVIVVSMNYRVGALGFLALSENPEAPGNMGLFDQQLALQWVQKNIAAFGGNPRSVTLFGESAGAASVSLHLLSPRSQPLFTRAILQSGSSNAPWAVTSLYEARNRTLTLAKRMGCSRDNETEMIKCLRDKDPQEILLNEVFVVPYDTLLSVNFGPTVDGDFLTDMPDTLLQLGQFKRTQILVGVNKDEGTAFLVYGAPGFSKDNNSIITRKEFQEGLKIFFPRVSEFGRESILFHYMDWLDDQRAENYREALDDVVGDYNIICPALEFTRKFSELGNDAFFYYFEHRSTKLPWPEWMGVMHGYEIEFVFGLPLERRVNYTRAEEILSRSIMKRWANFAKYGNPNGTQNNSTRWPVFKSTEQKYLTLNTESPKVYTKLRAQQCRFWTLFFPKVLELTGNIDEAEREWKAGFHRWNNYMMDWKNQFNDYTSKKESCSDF

In the case of `CC1=C(O)C(=O)C=C2C1=CC=C1[C@@]2(C)CC[C@@]2(C)[C@@H]3C[C@](C)(C(=O)O)CC[C@]3(C)CC[C@]12C`, the inhibition in experiment [1] came out at 22.1%; in experiment [2] it was 1.01%.
In the same order, the values of `COc1ccc(C(=O)OC2C[C@H]3CC[C@H](C2)N3C)cc1OC` (stereo partly drawn) are 49.5% and 1%.
In the same order, the values of `COC1=C(C(C)=O)C2=C(C)Cc3c(OC)c(=O)c(O)c4cc(OC)c5c(OC)cc(O)c6c(c2c3c4c56)C1=O` are 4.6% and -0.88%.
In the same order, the values of `COC(=O)[C@H]1[C@H]2C[C@@H]3c4[nH]c5cc(OC)ccc5c4CCN3C[C@H]2C[C@@H](OC(=O)c2cc(OC)c(OC)c(OC)c2)[C@@H]1OC` are 5.06% and 15.3%.
Take `O=C(/C=C/c1ccc(O)c(O)c1)O[C@H](Cc1ccc(O)c(O)c1)C(=O)O`: the results for the inhibition in experiment [1] and in experiment [2] were 14.9% and -3.64%, respectively.
In the same order, the values of `COc1cc(/C=C/C(=O)CC(=O)/C=C/c2ccc(O)c(OC)c2)ccc1O` are -2.21% and 2.41%.
For `CCC12C=CCN3CC[C@@]4(c5ccc(OC)cc5N(C)[C@H]4[C@@](O)(C(=O)OC)[C@@H]1OC(C)=O)[C@@H]32` (stereo partly drawn), the inhibition was 2.49% in experiment [1] and -7.45% in experiment [2].
In the same order, the values of `COc1c2c(cc3c1OCO3)CCN(C)C2` are 9.58% and 29.9%.
In the same order, the values of `N#C[C@H](O[C@@H]1O[C@H](CO[C@@H]2O[C@H](CO)[C@@H](O)[C@H](O)[C@H]2O)[C@@H](O)[C@H](O)[C@H]1O)c1ccccc1` are 0.78% and 5.7%.
In the same order, the values of `COc1cc(CNC(=O)CCCC/C=C/C(C)C)ccc1O` are -6.53% and 6.29%.
With `COc1ccc(/C=C/c2cc(OC)cc(=O)o2)cc1`, the inhibition in experiment [1] was 7.69%; in experiment [2], -1.55%.
Regarding `COc1cccc2oc(-c3ccccc3)cc(=O)c12`, the inhibition in experiment [1] turned out to be 37.5%; in experiment [2], 18.3%.
In the same order, the values of `COc1cc2c(c3oc4cccc(O)c4c(=O)c13)[C@@H]1C=CO[C@@H]1O2` are 18.2% and -2.65%.
In the same order, the values of `C=C1CC[C@@H]2[C@](C)(CO)[C@H](O)CC[C@@]2(C)[C@@H]1C/C=C1/C(=O)OC[C@H]1O` are 25.1% and 8.56%.
In the same order, the values of `CC(C)CCNC(=O)[C@H](CC(C)C)NC(=O)[C@H]1O[C@@H]1C(=O)O` are -1.94% and 10.6%.
Turning to `O=C1C=C2C(=CCOC2O)O1` (stereo not drawn), the inhibition in experiment [1] was 5.33%; in experiment [2], -1.78%.
As for `COc1cc([C@@H]2CC(=O)c3c(O)cc(O)cc3O2)ccc1O`, the inhibition in experiment [1] was found to be 29.5%; in experiment [2], 3.1%.
In the same order, the values of `O=c1cccc2n1C[C@@H]1CNC[C@H]2C1` are 2.17% and -3.85%.
In the same order, the values of `COc1cc2oc(=O)ccc2cc1O` are 28.1% and 3.87%.
In the same order, the values of `O=c1c(-c2ccc(O)cc2)coc2cc(O[C@@H]3O[C@H](CO)[C@@H](O)[C@H](O)[C@H]3O)cc(O)c12` are 24.6% and 1.82%.
Consider `COc1c2c(nc3ccccc13)OC(C(C)(O)CO)C2` (stereo not drawn), for which the results for the inhibition in experiment [1] and in experiment [2] were 22.5% and -2.71%, respectively.
In the same order, the values of `CC(=O)O[C@H]1C(=O)[C@@]2(C)[C@H]([C@H](OC(=O)c3ccccc3)[C@]3(O)C[C@H](OC(=O)[C@H](O)[C@@H](NC(=O)c4ccccc4)c4ccccc4)C(C)=C1C3(C)C)[C@]1(OC(C)=O)CO[C@@H]1C[C@@H]2O` are 12.5% and -2.88%.
In the same order, the values of `COc1ccc2c(c1)[nH]c1c(C)nccc12` are 50.9% and 12.1%.
In the same order, the values of `COC(=O)C1=CO[C@@H](C)[C@@H]2CN3CCc4c([nH]c5ccccc45)[C@@H]3C[C@H]12` are 22% and 89.1%.
Consider `O=C1c2c(O)cc(O)cc2O[C@H](c2ccc(O)c(O)c2)[C@H]1O`, for which the inhibition in experiment [1] amounted to 17.8%; in experiment [2] it was 0.97%.
In the same order, the values of `COC(=O)[C@@H]1[C@H]2C[C@H]3c4[nH]c5ccccc5c4CCN3C[C@@H]2CC[C@@H]1O` are 16.2% and -2.5%.
Turning to `C=C1CC[C@H]2C(=C)CC[C@H]3C(=C)C(=O)O[C@@H]3[C@@H]12`, the inhibition in experiment [1] came to 4.06%; in experiment [2], 10.7%.
Regarding `CCCCCCCCCCCCCC(=O)O[C@@H]1[C@@H](C)[C@@]2(O)[C@@H](C=C(CO)C[C@@]3(O)C(=O)C(C)=C[C@@H]23)[C@H]2C(C)(C)[C@]12OC(C)=O`, the inhibition in experiment [1] is 12.9%; in experiment [2], -0.91%.
In the same order, the values of `O=C(CCc1ccc(O)cc1)c1c(O)cc(O)cc1O` are -6.41% and 17%.
In the same order, the values of `C/C=C1\C[C@@H](C)[C@](O)(CO)C(=O)OCC2=CCN3CC[C@@H](OC1=O)[C@@H]23` are 4.15% and -3.05%.
With `CC[C@H]1CN2CCc3cc(OC)c(OC)cc3[C@@H]2C[C@@H]1C[C@H]1NCCc2cc(O)c(OC)cc21`, the inhibition is 11.9% in experiment [1] and -6.9% in experiment [2].
`C[C@]1(C(=O)O)CCC[C@]2(C)c3cc(O)ccc3CC[C@@H]12`: the inhibition in experiment [1] is -4.47%; in experiment [2] it was -2.99%.
In the same order, the values of `O=C(/C=C/c1ccc(O)c(O)c1)c1ccc(O)cc1O` are 10.1% and -0.63%.
In the same order, the values of `C1CCN2C[C@@H]3C[C@@H](CN4CCCC[C@@H]34)[C@H]2C1` are 4.72% and 5.31%.
In the same order, the values of `CCN1C[C@]2(COC)CC[C@H](OC)[C@]34C1[C@H]([C@H](OC)[C@H]23)[C@@]1(OC(C)=O)C[C@H](OC)[C@@]2(O)C[C@@H]4[C@@H]1[C@H]2C(=O)c1ccc(OC)cc1` are 3.52% and 9.36%.
Regarding `COc1ccc(C[C@H]2NC[C@H](O)[C@H]2OC(C)=O)cc1`, the inhibition is -1.2% in experiment [1] and -3.31% in experiment [2].
For the compound `COC(=O)C[C@](O)(CCC(C)(C)O)C(=O)O[C@@H]1C(OC)=C[C@]23CCCN2CCc2cc4c(cc2[C@H]13)OCO4`, the inhibition in experiment [1] was -5.71%; in experiment [2], 1.48%.
In the same order, the values of `C[C@H]1[C@H](C)CC[C@]2(C(=O)O)CC[C@]3(C)C(=CC[C@@H]4[C@@]5(C)C[C@@H](O)[C@H](O)[C@@](C)(CO)[C@@H]5[C@H](O)C[C@]43C)[C@H]12` are -1.33% and -7.93%.
In the same order, the values of `CN1C(=O)CC[C@H]1c1cccnc1` are 28.6% and -0.23%.
In the same order, the values of `c1coc(CNc2ncnc3[nH]cnc23)c1` are -5.12% and 3.13%.
As for `CC(=O)O[C@H]1C(=O)[C@@]2(C)[C@H]([C@H](OC(=O)c3ccccc3)[C@]3(O)C[C@H](O)C(C)=C1C3(C)C)[C@]1(OC(C)=O)CO[C@@H]1C[C@@H]2O`, the results for the inhibition in experiment [1] and in experiment [2] were 27.8% and 5.3%, respectively.
In the case of `O=c1c(O)c(-c2ccc(O)c(O)c2)oc2cc(O)ccc12`, the inhibition in experiment [1] was 27.5%; in experiment [2], 2.06%.
In the same order, the values of `O=c1c(O)c(-c2ccc(O)cc2)oc2cc(O)cc(O)c12` are 20% and 5.23%.
In the same order, the values of `COc1cc2c(cc1OC)[C@H]1[C@@H](C)c3ccc(OC)c(OC)c3CN1CC2` are 13.9% and -0.53%.
In the same order, the values of `O=c1c(-c2ccc(O)cc2)coc2cc(O)ccc12` are -3.93% and 0.02%.
For `CCN1C[C@]2(COC)CC[C@H](O)[C@@]34C5C[C@@H]6[C@@H](OC)C[C@](O)(C(CC23)C14)C5[C@H]6OC(C)=O` (stereo partly drawn), the figures for the inhibition in experiment [1] and in experiment [2] were 28.9% and -0.23%, respectively.
In the same order, the values of `COc1ccc([C@@H]2CC(=O)c3c(O)cc(O[C@@H]4O[C@H](CO)[C@@H](O)[C@H](O)[C@H]4O[C@@H]4O[C@@H](C)[C@H](O)[C@@H](O)[C@H]4O)cc3O2)cc1O` are 4.86% and 0.1%.
`COc1c2ccoc2cc2oc(C)cc(=O)c12`: the inhibition turned out to be 7% in experiment [1] and 16.2% in experiment [2].
In the same order, the values of `O=C(/C=C/C=C/c1ccc2c(c1)OCO2)N1CCCCC1` are -0.1% and 16.8%.
In the same order, the values of `CO[C@@H]1[C@H](OC(=O)/C=C/C=C/C=C/C=C/C(=O)O)CC[C@]2(CO2)[C@H]1[C@@]1(C)O[C@@H]1CC=C(C)C` are -8.57% and -3.3%.
In the same order, the values of `C[C@@]12CCc3occc3[C@H]1CC[C@]13CC(=O)[C@H](CC[C@H]12)C3` are -5.73% and -0.09%.
`COc1cc2c(cc1OC)[C@@]13CC[N+]4([O-])CC5=CCO[C@H]6CC(=O)N2[C@H]1[C@H]6[C@H]5C[C@@H]34` (stereo partly drawn): the results for the inhibition in experiment [1] and in experiment [2] were 12.8% and -6.05%, respectively.
In the same order, the values of `OC[C@H]1O[C@@H](O[C@@H]2OC=C[C@H]3[C@H](O)[C@@H]4O[C@]4(CO)[C@@H]23)[C@H](O)[C@@H](O)[C@@H]1O` are 11.3% and -5.36%.
In the same order, the values of `COC(=O)/C(=C1/OC(=O)C(c2ccccc2)=C1O)c1ccccc1` are 4.9% and 0.35%.
In the same order, the values of `O=c1cc(-c2ccc(O)c(O)c2)oc2cc(O)cc(O)c12` are 13.6% and 0.42%.
For `O=c1cc(-c2ccc(O)c(O)c2)oc2cc(O)c([C@@H]3O[C@H](CO)[C@@H](O)[C@H](O)[C@H]3O)c(O)c12`, the inhibition was 23.9% in experiment [1] and -4.72% in experiment [2].
In the case of BLEOMYCIN, the inhibition in experiment [1] is 10.2%; in experiment [2], 10.8%.
Take `O=C1C[C@@H]2OCC=C3CN4CC[C@]56c7ccccc7N1[C@H]5[C@H]2[C@H]3C[C@H]46`: the inhibition in experiment [1] was 12.2%; in experiment [2], 32.4%.
In the same order, the values of `C[C@@H]1O[C@@H](OC[C@H]2O[C@@H](Oc3cc(O)c4c(c3)O[C@H](c3ccc(O)c(O)c3)CC4=O)[C@H](O)[C@@H](O)[C@@H]2O)[C@H](O)[C@H](O)[C@H]1O` are 21.5% and 1.98%.
